By IC50 is commonly meant the concentration needed to halve the response being measured.

Each structure is given as a SMILES string.

This assay addresses ClpP Enzyme. The assay is classed as biochemical. Particulars: pH 8.
`O=[N+]([O-])C(=C1Nc2ccccc2N1)C(Cl)=C(Cl)Cl` [(I)] registered an IC50 of 23 µM.

For the molecule `Clc1nc2ccccc2nc1N1CC1` [(II)], the IC50 turned out to be 19 µM.

For `COc1ccc(/C=C(\C#N)c2nnc(/N=C/N(C)C)s2)cc1` [(III)], it took 25 µM to reach half-maximal inhibition (IC50).

For the origin of these results see US20070113300A1 (priority 2003, published 2007).
